Like-named read-outs stand apart in the source and are kept apart here.
Assays:
[1] = target: acetylcholinesterase (AChE) (Homo sapiens, UniProt P22303); assay: biochemical
Protocol: The inhibitory effects of 4–13 on AChE were measured in vitro in 96-well plates as previously described.

[2] = system: PC-3 cells; assay: CCK-8 cytotoxicity assay, PC-3 cells; format: cell-based
Protocol: Compounds 4–13 were tested for their cytotoxicity against two prostatic carcinoma cell lines, PC-3 and 22Rv1, according to the reported CCK-8 (Dojindo) method. In brief, cells were seeded in a 96-well plate at the appropriate cell concentration and then incubated for 24 h at 37 °C in a 100% relative humidity, 5% CO2 incubator. Compounds to be tested were diluted to the appropriate concentration with culture medium, and the amount of each compound was adjusted to 25 μL before adding to the cells. Docetaxel (S1148, Selleck) was used as a positive control. The medium was aspirated, a fresh complete medium with 10% CCK-8 was added to incubate in a 37 °C incubator for 2-4 h, and the absorbance of the soultion at 450 nm was measured by an Envision 2104 multilabel reader (PerkinElmer). The inhibition rate was calculated by taking the absorbance at 650 nm as a reference.

[3] = in vitro, 96-well plates, read-out: AChE inhibitory activity IC50

Sequence of acetylcholinesterase (AChE) (P22303 32-614, species assumed): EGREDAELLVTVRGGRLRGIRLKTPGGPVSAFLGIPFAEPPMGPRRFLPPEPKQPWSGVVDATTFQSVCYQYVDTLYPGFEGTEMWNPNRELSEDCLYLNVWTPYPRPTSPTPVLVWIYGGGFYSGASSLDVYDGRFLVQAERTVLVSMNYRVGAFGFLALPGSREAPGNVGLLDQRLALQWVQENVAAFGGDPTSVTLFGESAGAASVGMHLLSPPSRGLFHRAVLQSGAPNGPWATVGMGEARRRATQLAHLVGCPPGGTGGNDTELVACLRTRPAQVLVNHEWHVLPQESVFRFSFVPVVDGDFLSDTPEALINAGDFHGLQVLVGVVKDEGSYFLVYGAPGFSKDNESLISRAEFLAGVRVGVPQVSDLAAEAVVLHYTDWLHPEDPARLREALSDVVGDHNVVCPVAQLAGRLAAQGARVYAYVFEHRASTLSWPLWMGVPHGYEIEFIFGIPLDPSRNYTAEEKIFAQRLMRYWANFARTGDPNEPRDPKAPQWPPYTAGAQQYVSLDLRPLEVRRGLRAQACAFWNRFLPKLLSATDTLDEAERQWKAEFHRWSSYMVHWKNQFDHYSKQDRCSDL

Molecule `CC1=C(C)[C@H]2[C@H](Cc3c[nH]c4ccccc34)NC(=O)[C@]23C(=O)CC[C@H](O)C(=O)/C(C)=C/[C@@H](C)C/C=C/[C@H]3[C@@H]1O` [Compound 4, chaetoglobosin E] has an IC50 [1, 3] of 4.15 µM.

Molecule `CC1=C(O)C(=O)[C@H]2CC(=O)[C@@]34C(=O)N[C@@H](Cc5c[nH]c6ccccc56)[C@@H]3C(C)=C(C)[C@@H](O)[C@@H]4/C=C/C[C@H](C)[C@H]12` [Compound 8, chaetoglobosin V] has an IC50 [1, 3] of 1.31 µM.

`CC1=C(O)C(=O)[C@@H]2CC(=O)[C@@]34C(=O)N[C@@H](Cc5c[nH]c6ccccc56)[C@@H]3C(C)=C(C)[C@@H](O)[C@@H]4/C=C/C[C@H](C)[C@@H]12` [Compound 9, chaetoglobosin Vb] gave an IC50 [1, 3] of 23.7 µM.

`C=C1[C@@H](C)[C@H]2[C@H](Cc3c[nH]c4ccccc34)NC(=O)[C@]23C(=O)CC[C@H](O)C(=O)/C(C)=C/[C@@H](C)C/C=C/[C@H]3[C@@H]1O` [Compound 5, chaetoglobosin Fex] showed an IC50 ([2]; Homo sapiens, PC-3, read-out: IC50 against PC-3 cells, prostatic carcinoma cell line PC-3, CCK-8, triplicate) of 2.32 µM, an IC50 ([2]; read-out: IC50 against PC-3 cells, prostatic carcinoma cell line PC-3, CCK-8, triplicate, listed as C5) of 2.32 µM and an IC50 [1] of 31.7 µM.

With `CC(=O)O[C@@]12CO[C@@H]1C[C@H](O)[C@@]1(C)C(=O)[C@H](O)C3=C(C)[C@@H](OC(=O)[C@H](O)[C@@H](NC(=O)OC(C)(C)C)c4ccccc4)C[C@@](O)([C@@H](OC(=O)c4ccccc4)[C@H]21)C3(C)C` [docetaxel, reference compound] the IC50 ([2]; Homo sapiens, prostatic carcinoma cell line PC-3, CCK-8, triplicate, read-out: IC50 against PC-3 cells) was 0.12 µM.

With `CC1=C(C)[C@H]2[C@H](Cc3c[nH]c4ccccc34)NC(=O)[C@]23C(=O)CCC(=O)C(=O)/C(C)=C/[C@@H](C)C/C=C/[C@H]3[C@@H]1O` [Compound 6, chaetoglobosin G] the IC50 [1] was 8.71 µM.
